For experiment [1], the system named is human platelet suspension (platelet aggregation caused by TxA2 agonist U46619). Nature of the experiment: Platelet aggregation reaction test, U46619-induced. Type of experiment: cell-based. How it is done: (§1) Blood samples were collected from healthy donors, and acid-citrate-dextrose (ACD) solution was used as an anticoagulant. The blood samples were centrifuged to obtain platelets, and residual plasma was removed by washing to prepare platelet suspension.
(§2) In the experimental method, a platelet aggregometer (Chrono-Log Co., Havertown, PA, USA) was used for tests. The compound to be tested was added to the platelet suspension and reacted for 3 minutes at 37° C. with stirring (1200 rpm). Then, platelet stimulator U46619 or collagen was added to initiate platelet aggregation, and the test time was 5 minutes. The principle of the platelet aggregation test was: when platelets were stimulated to induce aggregation reaction, the light transmission of the platelet suspension would increase; by calculating changes in light transmission of the platelet suspension before and after being stimulated, the percentage of platelet aggregation could be obtained.

For experiment [2], the system named is human platelet suspension (platelet aggregation caused by collagen). The experiment is described as follows: Platelet aggregation reaction test, collagen-induced. Type of experiment: cell-based. Conditions: read-out: Collagen IC 50. As for the experimental part: as §1, §2

Data on 44 molecules can be found in US20250387375A1, “SOFALCONE DERIVATIVES AND MEDICAL USE THEREOF” (KAOHSIUNG MEDICAL UNIVERSITY, priority 2024, published 2025).

Each structure is given as a SMILES string.

For `CCOC(=O)COc1ccccc1C(=O)C=Cc1ccc(Br)s1` [Compound 67], the values for the IC50 in experiment [1] and in experiment [2] were > 100 µM and 5.35 µM, respectively.

In the case of `CCOC(=O)CCCOc1ccccc1C(=O)C=Cc1ccc(OCC=C(C)CCC=C(C)C)cc1` [Compound 8], the results for the IC50 in experiment [1] and in experiment [2] were 2.78 µM and 4.24 µM, respectively.

In the case of `CC(C)=CCOc1ccc(C=CC(=O)c2ccccc2OCCCC(=O)O)cc1` [Compound 99], the IC50 amounted to 3.33 µM in experiment [1] and 6.42 µM in experiment [2].

`O=C(O)COc1ccccc1C(=O)/C=C/c1ccc(F)cc1` [Compound 28]: the values for the IC50 in experiment [1] and in experiment [2] were 1.8 µM and 4.22 µM, respectively.

As for `COC(=O)COc1cc(OCc2ccc(F)cc2)ccc1C(=O)C=Cc1ccc(OCc2ccc(F)cc2)cc1` [Compound 86], the IC50 in experiment [1] and in experiment [2] was > 100 µM in each case.

With `CC(C)=CCOc1ccc(/C=C/C(=O)c2ccccc2OCC(=O)O)cc1` [Compound 27], the IC50 was 5.07 µM in experiment [1] and 18.8 µM in experiment [2].

For `CCOC(=O)COc1ccccc1C(=O)C=Cc1ccc(N)cc1` [Compound 46], the IC50 in experiment [1] was found to be 64 µM; in experiment [2] it was 5.08 µM.

Take `O=C(O)CCCCCOc1ccccc1C(=O)C=Cc1ccccn1` [Compound 53]: the IC50 turned out to be 50.4 µM in experiment [1] and 44.4 µM in experiment [2].

On to `CC(C)=CCOc1ccc(CCC(=O)c2ccc(OCC=C(C)C)cc2OCC(=O)O)cc1` [Compound 76], for which the IC50 in experiment [1] turned out to be 12.6 µM; in experiment [2] it was 31 µM.

`O=C(O)CCCCCCOc1ccccc1C(=O)C=Cc1ccccc1` [Compound 105]: the results for the IC50 in experiment [1] and in experiment [2] were 2.92 µM and 9.08 µM, respectively.

Take `CCCCCCCCOc1ccc(C=CC(=O)c2ccc(OCCCCCCCC)cc2OCC(=O)OC)cc1` [Compound 92]: the IC50 in experiment [1] and in experiment [2] was > 50 µM throughout.

For `O=C(O)CCCCCOc1ccccc1C(=O)C=Cc1cccnc1` [Compound 54], the figures for the IC50 in experiment [1] and in experiment [2] were 5.45 µM and 22.1 µM, respectively.

Turning to `CCCCCCOc1ccc(C=CC(=O)c2ccc(OCCCCCC)cc2OCC(=O)O)cc1` [Compound 95], the IC50 in experiment [1] came to 36.9 µM; in experiment [2], 76.3 µM.

Turning to `COC(=O)CCCOc1cc(OCC=C(C)C)ccc1C(=O)CCc1ccc(OCC=C(C)C)cc1` [Compound 73], the IC50 came out at 10.7 µM in experiment [1] and 62.9 µM in experiment [2].

For `CC(C)=CCCC(C)=CCOc1ccc(C=CC(=O)c2ccc(OCC=C(C)CCC=C(C)C)cc2OCCCC(=O)O)cc1` [Compound 6], the IC50 amounted to 3.66 µM in experiment [1] and 44.4 µM in experiment [2].

Consider `CC(C)=CCOc1ccc(C(=O)/C=C/c2ccc(F)cc2)c(OCC(=O)O)c1` [Compound 23], for which the IC50 in experiment [1] came out at 22.2 µM; in experiment [2], 33.5 µM.

As to `O=C(O)CCCCCOc1ccccc1C(=O)C=Cc1cccs1` [Compound 51], the IC50 in experiment [1] stood at 0.57 µM; in experiment [2] it was 0.62 µM.

On to `CC(=O)Nc1ccc(/C=C/C(=O)c2ccc(OCC=C(C)C)cc2OCC(=O)O)cc1` [Compound 26], for which the IC50 in experiment [1] was 15.7 µM; in experiment [2] it was 40.8 µM.

On to `CC(C)=CCCC(C)=CCOc1ccc(C=CC(=O)c2ccc(F)cc2OCCCC(=O)O)cc1` [Compound 10], for which the IC50 in experiment [1] was found to be 5.24 µM; in experiment [2], 52.5 µM.

As for `CCOC(=O)CCCCCOc1ccccc1C(=O)C=Cc1ccccc1` [Compound 111], the IC50 in experiment [1] stood at 0.16 µM; in experiment [2], 0.22 µM.

For `CC(C)=CCOc1ccc(C=CC(=O)c2ccc(OCC=C(C)C)cc2OCCCCCC(=O)O)cc1` [Compound 32], the IC50 is 5.85 µM in experiment [1] and 12.8 µM in experiment [2].

Consider `CCOC(=O)COc1ccccc1C(=O)C=Cc1ccccc1` [Compound 108], for which the figures for the IC50 in experiment [1] and in experiment [2] were 15.3 µM and 3.67 µM, respectively.

Turning to `O=C(O)COc1ccccc1C(=O)C=Cc1ccc(Br)s1` [Compound 58], the IC50 in experiment [1] stood at 72.6 µM; in experiment [2], 40.9 µM.

Regarding `O=C(O)CCCCCOc1cc(F)ccc1C(=O)/C=C/c1ccc(F)cc1` [Compound 16], the values for the IC50 in experiment [1] and in experiment [2] were 0.37 µM and 0.62 µM, respectively.

Consider `COC(=O)COc1cc(OCc2ccccc2)ccc1C(=O)C=Cc1ccc(OCc2ccccc2)cc1` [Compound 85], for which the IC50 in experiment [1] and in experiment [2] was > 100 µM each time.

As to `CCOC(=O)CCCCCOc1ccccc1C(=O)C=Cc1cccs1` [Compound 61], the IC50 came to 0.54 µM in experiment [1] and 0.56 µM in experiment [2].

On to `CC(C)=CCOc1ccc(C(=O)C=Cc2cccs2)c(OCCCCCC(=O)O)c1` [Compound 55], for which the IC50 in experiment [1] turned out to be 5.37 µM; in experiment [2], 4.4 µM.

Take `O=C(O)COc1ccccc1C(=O)C=Cc1ccccc1` [Compound 35]: the IC50 in experiment [1] worked out at 6.58 µM; in experiment [2], 7.91 µM.

For `O=C(O)CCCOc1cc(O)ccc1C(=O)C=Cc1ccc(O)cc1` [Compound 70], the figures for the IC50 in experiment [1] and in experiment [2] were 5.43 µM and 6.55 µM, respectively.

In the case of `COC(=O)COc1cc(O)ccc1C(=O)C=Cc1ccc(O)cc1` [Compound 69], the IC50 was 27.8 µM in experiment [1] and 3.42 µM in experiment [2].

Consider `O=C(O)CCCOc1ccccc1C(=O)C=Cc1ccccc1` [Compound 34], for which the IC50 amounted to 9.5 µM in experiment [1] and 6.4 µM in experiment [2].

`CC(C)=CCCC(C)=CCOc1ccc(C=CC(=O)c2ccc(OCC=C(C)CCC=C(C)C)cc2OCCCC(=O)O)cc1` [Compound 4]: the figures for the IC50 in experiment [1] and in experiment [2] were 0.05 µM and 0.06 µM, respectively.

On to `COC(=O)COc1cc(OCC=C(C)C)ccc1C(=O)CCc1ccc(OCC=C(C)C)cc1` [Compound 74], for which the IC50 in experiment [1] and in experiment [2] was > 100 µM in each case.

As to `O=C(O)COc1cc(OCc2ccccc2)ccc1C(=O)C=Cc1ccc(OCc2ccccc2)cc1` [Compound 88], the IC50 was determined as 9.09 µM in experiment [1] and 45.1 µM in experiment [2].

In the case of `CC(C)=CCOc1ccc(C(=O)/C=C/c2ccc(OCC=C(C)C)c(OCC=C(C)C)c2)c(OCC(=O)O)c1` [Compound 21], the IC50 in experiment [1] worked out at 14.4 µM; in experiment [2], 29.7 µM.

Regarding `CCOC(=O)COc1cc(OC)ccc1C(=O)C=Cc1ccc(OC)cc1` [Compound 48], the IC50 in experiment [1] and in experiment [2] was > 100 µM throughout.

For `CCOC(=O)COc1cc(O)ccc1C(=O)C=Cc1ccc(Cl)cc1` [Compound 44], the IC50 in experiment [1] is > 100 µM; in experiment [2], 8.92 µM.

Turning to `COc1ccc(/C=C/C(=O)c2ccc(OC)cc2OCC(=O)O)cc1` [Compound 18], the figures for the IC50 in experiment [1] and in experiment [2] were > 100 µM and 96.2 µM, respectively.

Regarding `CC(C)=CCOc1ccc(C(=O)/C=C/c2ccc([N+](=O)[O-])cc2)c(OCC(=O)O)c1` [Compound 25], the results for the IC50 in experiment [1] and in experiment [2] were 43.8 µM and 49.2 µM, respectively.

On to `CCCCCCCCOc1ccc(C=CC(=O)c2ccc(OCCCCCCCC)cc2OCC(=O)O)cc1` [Compound 96], for which the IC50 in experiment [1] and in experiment [2] was > 100 µM throughout.

As to `O=C(O)COc1ccccc1C(=O)C=Cc1cccs1` [Compound 57], the results for the IC50 in experiment [1] and in experiment [2] were 71.5 µM and 15.5 µM, respectively.

For the molecule `O=C(O)COc1cc(O)ccc1C(=O)C=Cc1ccc(O)cc1` [Compound 71], the IC50 in experiment [1] is 65.4 µM; in experiment [2], > 100 µM.

Regarding `O=C(O)CCCCCOc1ccccc1C(=O)C=Cc1ccco1` [Compound 52], the IC50 stood at 0.5 µM in experiment [1] and 0.56 µM in experiment [2].

As to `CC(C)=CCOc1ccc(C=CC(=O)c2ccccc2OCCCCCC(=O)O)cc1` [Compound 103], the IC50 was 0.46 µM in experiment [1] and 0.38 µM in experiment [2].
